Calls of active or inactive are those of the source.

The target of assay [1] is Serine/threonine-protein phosphatase (Homo sapiens, UniProt Q9BPW0). Briefly: inhibition of protein phosphatase 5 activity – biochemical, fluorescence, dose response (AID 2395).
The target in assay [2] is T1, Sentrin-specific protease 7 (Homo sapiens, UniProt Q9BQF6).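 Further: Luminescence-based dose-response confirmation of ultra-high-throughput screening hits, measuring inhibition of SENP7.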
T1 sequence (Q9BQF6 whole entry): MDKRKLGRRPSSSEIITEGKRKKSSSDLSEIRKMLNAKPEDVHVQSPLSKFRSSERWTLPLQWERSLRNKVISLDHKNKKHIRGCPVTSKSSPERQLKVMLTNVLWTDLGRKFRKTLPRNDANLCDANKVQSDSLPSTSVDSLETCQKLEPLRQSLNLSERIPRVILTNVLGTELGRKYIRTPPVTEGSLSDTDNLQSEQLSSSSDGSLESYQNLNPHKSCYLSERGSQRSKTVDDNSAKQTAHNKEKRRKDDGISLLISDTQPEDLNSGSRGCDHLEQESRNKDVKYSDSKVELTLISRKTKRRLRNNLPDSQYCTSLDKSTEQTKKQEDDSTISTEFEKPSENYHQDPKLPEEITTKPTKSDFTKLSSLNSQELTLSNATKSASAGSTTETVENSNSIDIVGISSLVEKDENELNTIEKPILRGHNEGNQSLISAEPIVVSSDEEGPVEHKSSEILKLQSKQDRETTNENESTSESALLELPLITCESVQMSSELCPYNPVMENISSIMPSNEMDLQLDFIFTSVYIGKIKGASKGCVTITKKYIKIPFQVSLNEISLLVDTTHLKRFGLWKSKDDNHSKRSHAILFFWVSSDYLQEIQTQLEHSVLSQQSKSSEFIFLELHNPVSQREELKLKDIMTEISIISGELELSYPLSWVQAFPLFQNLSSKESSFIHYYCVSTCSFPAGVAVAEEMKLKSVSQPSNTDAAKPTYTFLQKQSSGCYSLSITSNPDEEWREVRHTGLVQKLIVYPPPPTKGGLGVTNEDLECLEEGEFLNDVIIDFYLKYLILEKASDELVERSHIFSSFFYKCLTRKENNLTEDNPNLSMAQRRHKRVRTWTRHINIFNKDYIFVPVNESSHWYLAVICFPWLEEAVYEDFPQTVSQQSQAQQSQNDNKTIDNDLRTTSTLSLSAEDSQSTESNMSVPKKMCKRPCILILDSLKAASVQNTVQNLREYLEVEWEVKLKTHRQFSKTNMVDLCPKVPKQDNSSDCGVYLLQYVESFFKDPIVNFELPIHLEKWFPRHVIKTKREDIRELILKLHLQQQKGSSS
It is filed as functional.

In a further assay the target is T2, Caspase-6 (Homo sapiens, UniProt P55212).
T2 sequence (P55212 whole entry): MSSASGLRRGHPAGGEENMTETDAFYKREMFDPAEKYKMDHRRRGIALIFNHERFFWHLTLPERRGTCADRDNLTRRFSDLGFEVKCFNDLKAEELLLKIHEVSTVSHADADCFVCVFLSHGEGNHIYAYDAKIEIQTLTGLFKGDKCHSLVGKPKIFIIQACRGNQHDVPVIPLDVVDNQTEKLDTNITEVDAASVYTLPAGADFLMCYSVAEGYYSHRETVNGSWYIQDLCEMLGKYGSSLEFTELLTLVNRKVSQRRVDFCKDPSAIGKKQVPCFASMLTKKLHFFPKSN
Kind of assay: inhibition of CASP6 peptide cleavage – biochemical, VEID-R110 fluorescence, cherry-pick, dose response (AID 720632).

Another assay has as its system BJ. Briefly: BJ-TERT fibroblast viability loss – cell-based, RAS-independent, luminescence, dose response (AID 1933). In kind it is functional. As to conditions: Homo sapiens.
Assay [3] concerns the target T3, Rac GTPase-activating protein 1 (Homo sapiens, UniProt Q9H0H5).
T3 sequence (Q9H0H5 whole entry): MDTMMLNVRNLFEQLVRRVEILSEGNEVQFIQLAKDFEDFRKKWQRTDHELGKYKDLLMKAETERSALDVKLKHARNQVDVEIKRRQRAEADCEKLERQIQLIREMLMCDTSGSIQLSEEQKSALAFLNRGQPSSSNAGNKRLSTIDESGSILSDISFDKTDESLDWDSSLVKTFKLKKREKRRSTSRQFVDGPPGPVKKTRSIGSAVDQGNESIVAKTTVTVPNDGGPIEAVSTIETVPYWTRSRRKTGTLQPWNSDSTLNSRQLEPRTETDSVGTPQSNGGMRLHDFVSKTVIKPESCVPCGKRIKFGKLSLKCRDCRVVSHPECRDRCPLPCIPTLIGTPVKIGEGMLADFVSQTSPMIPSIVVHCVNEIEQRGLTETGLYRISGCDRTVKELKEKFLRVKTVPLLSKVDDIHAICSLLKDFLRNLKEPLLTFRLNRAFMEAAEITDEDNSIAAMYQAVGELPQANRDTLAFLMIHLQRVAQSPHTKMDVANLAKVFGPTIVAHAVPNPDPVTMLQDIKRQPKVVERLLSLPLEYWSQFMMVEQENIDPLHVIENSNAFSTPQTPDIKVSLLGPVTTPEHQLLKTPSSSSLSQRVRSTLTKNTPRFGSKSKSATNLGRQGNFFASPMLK
Briefly: blockers of MgcRacGAP-driven Rac1 GTP hydrolysis – biochemical, ADP Hunter fluorescence, primary and confirmatory, confirmation (AID 624330). It is filed as functional.

Assay [4] is described as follows: Reduced DLD-1 viability, concentration-response, CellTiter-Glo luminescence (AID 1117352). In kind it is functional.

Serine/threonine-protein phosphatase, sequence (Q9BPW0 whole entry): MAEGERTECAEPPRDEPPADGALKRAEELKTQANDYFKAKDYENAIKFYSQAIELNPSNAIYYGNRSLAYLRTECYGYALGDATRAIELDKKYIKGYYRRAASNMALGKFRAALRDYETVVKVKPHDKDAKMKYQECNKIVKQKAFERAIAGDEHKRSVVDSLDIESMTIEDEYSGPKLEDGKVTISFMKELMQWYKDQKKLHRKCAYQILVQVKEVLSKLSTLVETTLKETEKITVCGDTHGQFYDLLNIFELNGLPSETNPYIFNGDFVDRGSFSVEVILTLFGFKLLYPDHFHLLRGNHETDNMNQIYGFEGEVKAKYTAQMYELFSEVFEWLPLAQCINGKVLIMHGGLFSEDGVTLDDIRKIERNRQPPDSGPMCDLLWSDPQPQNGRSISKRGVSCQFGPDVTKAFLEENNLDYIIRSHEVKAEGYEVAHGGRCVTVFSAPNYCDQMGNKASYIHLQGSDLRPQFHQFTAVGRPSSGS

By IC50 is commonly meant the concentration at which inhibition is half-maximal. As a reminder, the AC50 is the concentration giving half of the maximal activity seen. Regarding `CCCOc1cc2c(C#N)c(N3CCCC3)nc(N)c2c(N)n1`, the IC50 in assay [1] was 9.93 µM (active); in assay [2] it was 4.45 µM (active). For the same compound, on Caspase-6, the AC50 was 16.9 µM (active).
For orientation: EC50 means the concentration that produces a half-maximal response. With `Cc1cc2nc3ccc(N(C)C)cc3[s+]c2cc1N` [TOLONIUM CHLORIDE], the EC50 in the assay on BJ is 5.74 µM (active). Besides, the IC50 was 32.4 µM (active) in assay [3] and 9.38 µM (inactive) in assay [4].

(Values after ChEMBL document CHEMBL1201862, “PubChem BioAssay data set” (2004).)
